Assay results: PMC7589326, “Synthesis and Pharmacological Evaluation of Fluorinated Quinoxaline‐Based κ‐Opioid Receptor (KOR) Agonists Designed for PET Studies” (Chemmedchem, 2020)
“Also recorded” adds a separate entry of the source.

Assays:
[1] = In vitro biotransformation with mouse liver microsomes and NADPH (LC-MS/MS); details: mouse liver microsomes, NADPH, 90 min
MOG induced EAE = details: mouse, in vivo; cited from earlier work
KOR [2] = target: T1, KOR (Homo sapiens, UniProt P41145); design: expressed in transfected cells; host or cells: HEK 293T (ATCC CRL-11268); method as in PMID 30543421; details: human HEK 293T cells; refers to U-50,488 (100 %); cited from earlier work
Target sequence in this assay (P41145 whole entry, the tested form may be a part): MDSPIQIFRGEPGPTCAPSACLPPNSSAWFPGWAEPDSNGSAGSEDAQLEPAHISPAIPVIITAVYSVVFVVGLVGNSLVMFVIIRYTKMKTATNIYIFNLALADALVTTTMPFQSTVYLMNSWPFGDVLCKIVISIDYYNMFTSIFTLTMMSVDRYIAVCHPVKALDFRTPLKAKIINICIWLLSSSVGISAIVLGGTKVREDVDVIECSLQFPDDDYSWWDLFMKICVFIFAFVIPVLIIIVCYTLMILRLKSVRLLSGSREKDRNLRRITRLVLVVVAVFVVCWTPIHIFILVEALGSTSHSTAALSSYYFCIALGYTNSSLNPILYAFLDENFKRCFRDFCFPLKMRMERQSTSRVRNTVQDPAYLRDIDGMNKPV

KOR [3] = target: T1, KOR; design: expressed in transfected cells; host or cells: HTLA cells (stably expressing TEV-fused β-arrestin2); method as in PMID 30543421; details: human HTLA cells; refers to U-50,488 (100 %); cited from earlier work
Target sequence in this assay (P41145 whole entry, the tested form may be a part): as above
Target sequence in this assay (P32121 whole entry partner, the tested form may be a part): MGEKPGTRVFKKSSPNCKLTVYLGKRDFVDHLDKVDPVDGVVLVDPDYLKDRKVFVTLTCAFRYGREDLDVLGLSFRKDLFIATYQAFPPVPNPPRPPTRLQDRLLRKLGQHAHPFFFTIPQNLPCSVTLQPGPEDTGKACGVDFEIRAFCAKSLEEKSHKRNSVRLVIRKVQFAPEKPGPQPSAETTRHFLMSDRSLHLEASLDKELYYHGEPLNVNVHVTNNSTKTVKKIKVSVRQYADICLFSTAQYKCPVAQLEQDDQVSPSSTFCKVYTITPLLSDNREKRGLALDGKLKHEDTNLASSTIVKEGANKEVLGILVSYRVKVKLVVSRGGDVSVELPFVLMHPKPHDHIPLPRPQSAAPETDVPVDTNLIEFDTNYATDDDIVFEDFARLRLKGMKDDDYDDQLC

[4] = Distribution coefficient logD7.4, shake flask method with radioligand; assay type: physicochemical; details: n-octanol / phosphate buffered saline pH 7.4
Method: The distribution coefficient at pH 7.4 (logD7.4) was determined by a shake flask method using the radioligand [^18F]‐2. After distribution of [^18F]‐2 between n‐octanol and phosphate buffered saline (pH 7.4) layers, the radioactivity in both layers was determined and set in ratio. According to this procedure, a logD7.4 value of 1.37±0.06 was determined indicating a moderate lipophilic compound, which should be able to penetrate into the central nervous system.
The lipophilicity of radioligands [^18F]‐2 and [^18F]‐14c was assessed by determination of the water n‐octan‐1‐ol distribution coefficient (logD) following a published procedure.57 In brief, approximately 3.2 MBq of radioligand [^18F]‐2 and approximately 0.3 MBq of radiotracer [^18F]‐14c, respectively, were mixed with equal amounts (0.6 mL) of phosphate buffered saline (PBS, pH 7.4) and n‐octan‐1‐ol. The resulting biphasic system was mixed vigorously for 3 min at room temperature and subsequently, the tubes were centrifuged (≥5 min). Then 400 μL of the n‐octan‐1‐ol layer was separated and 400 μL of PBS were added. The mixture was mixed vigorously for 10 min at room temperature followed by centrifugation of the tubes for≥5 min. Two samples of 100 μL of each layer were counted in a γ‐counter (2480 Automatic Gamma Counter Wizard^2, Perkin‐Elmer). The distribution coefficient was determined by calculating the ratio cpm(n‐octan‐1‐ol)/cpm(PBS) and expressed as logD 7.4 (log(cpmn‐octanol/cpmPBS)). Three independent experiments were performed in duplicate and data were provided as mean values ±standard deviation.

[5] = Stability in mouse serum (radio-HPLC); assay type: in vitro ADME; details: 90 min, 37 °C
Method: (§1) Enzymes present in blood serum could be able to transform the radioactive PET tracer [^18F]‐2. Therefore, the blood serum stability of [^18F]‐2 was investigated before testing the tracer in vivo. [^18F]‐2 was incubated with mouse and human serum for 90 min at 37 °C.
(§2) The serum stability of radioligands [^18F]‐2 and [^18F]‐14c was evaluated by incubation in mouse or human serum at 37 °C for up to 90 min. An aliquot of formulated [^18F]‐2 or [^18F]‐14c (20 μL, ca. 6.6 MBq and ca.10 MBq, respectively) was added to a sample of mouse serum (200 μL) or human serum (200 μL), and the mixtures were incubated at 37 °C. Samples of 20 μL each were taken after periods of 10, 30, 60 and 90 min and ice‐cold DNA‐grade CH3CN (100 μL) were added. After centrifugation for ≥5 min, the supernatant was analyzed by analytical radio‐HPLC B, method B.

[6] = Stability in human serum (radio-HPLC); assay type: in vitro ADME; details: 90 min, 37 °C
Method: as §1, §2

[7] = In vivo biodistribution, small animal PET in C57BL/6 mice; design: species or system mouse; details: C57BL/6 mice, intravenous injection
Method: Next, the distribution of the PET tracer [^18F]‐2 in mice was investigated. For this purpose, [^18F]‐2 was injected into 15‐week‐old C57BL/6 mice. […] Already after 2 min the radioactivity was almost completely found in liver, kidneys and bladder. In the liver, the radioactivity remained almost constant over the period of 90 min (Figure 6). Besides a transient local increase in radioactivity in the submandibular and harderian glands, no significant accumulation of [^18F]‐2 in non‐excreting organs such as heart, lung and muscles as indicator for unspecific binding could be detected.
Adult C57BL/6 mice (n=2 male, 15 weeks, 28 g for [^18F]‐2; n=2, male, 10 weeks, 25 g for [^18F]‐14c) were anesthetized by isoflurane/O2 and one lateral tail vein was cannulated BY using a 27 G needle connected to 15 cm polyethylene catheter tubing. Radiotracers (∼500 kBq/g bodyweight, 15 MBq) were injected as a bolus (50 μL compound flushed with 100 μL saline) via the tail vein and subsequent PET scanning was performed.
Small Animal PET Scanning. PET experiments were carried out using a submillimeter high resolution (0.7 mm full width at half‐maximum) small animal scanner (32 module quadHIDAC, Oxford Positron Systems Ltd., Oxford, UK) with uniform spatial resolution (<1 mm) over a large cylindrical field (165 mm diameter, 280 mm axial length). List‐mode data were acquired for 90 min and reconstructed into dynamic time frames using an iterative reconstruction algorithm. Subsequently, the scanning bed was transferred to the computed tomography (CT) scanner (Inveon, Siemens Medical Solutions, U.S.), and a CT acquisition with a spatial resolution of 80 μm was performed for each mouse. Reconstructed image data sets were coregistered based on extrinsic markers attached to the multimodal scanning bed and the in‐house developed image analysis software MEDgical. Three‐dimensional volumes of interest (VOIs) were defined over the respective organs in CT data sets, transferred to the coregistered PET data, and analyzed quantitatively. Regional uptake was calculated as percentage of injected dose by dividing counts per milliliter in the VOI by total counts in the mouse multiplied by 100 (%ID/mL).

[8] = Biostability and biotransformation in mice in vivo (radio-HPLC of pooled blood); design: species or system mouse; details: pooled blood of three mice, 90 min after injection
Method: In order to investigate the in vivo biotransformation of [^18F]‐2, the blood of three mice 90 min after injection of [^18F]‐2 was pooled and analyzed.
Approximately 72 MBq of [^18F]‐2 (in a volume of 100 μL) were injected into the tail vein of each of three 11‐week‐old C57/BL6 mice. The animals were sacrificed 90 min after injection. Whole blood of the three mice was pooled (∼2 mL) and centrifuged (3 min) to isolate plasma. Plasma (∼0.7 mL) was separated and mixed with ice‐cold CH3CN (1.4 mL). After further centrifugation for 5 min, the supernatant was separated and evaporated to dryness in vacuo at moderate temperatures (≤60 °C). The residue was dissolved in water for injection (20 μL) and the solution was analyzed by analytical radio‐HPLC B, method B.

## O=C(Cc1ccc(Cl)c(Cl)c1)N1CCNC2CCCC(N3CCC(F)C3)C21 (centres unmarked) [14c‐5]
[1]
  amount of metabolite formed from 14c: minor amounts

## O=C(Cc1ccc(Cl)c(Cl)c1)N1CCN(Cc2cn(CCF)nn2)C2CCCC(N3CCCC3)C21 (centres unmarked) [compound 2]
MOG induced EAE
  protection from MS-like symptoms / disease severity in EAE: significantly decreased diseases severity and delayed disease onset; also recorded: almost complete protection
KOR [2]
  cAMP E max: 103%
KOR [3]
  β-Arrestin-2 E max: 86%

## O=C(Cc1ccc(Cl)c(Cl)c1)N1CCN(Cc2cn(CC[18F])nn2)[C@H]2CCC[C@H](N3CCCC3)[C@H]21 [[^18F]‐2, 2‐(3,4‐Dichlorophenyl)‐1‐((4aR,8R,8aS)‐ and ((4aS,8S,8aR)‐ 4‐{[1‐(2‐[^18F]fluoroethyl)‐1H‐1,2,3‐triazol‐4‐yl]methyl}‐8‐ (pyrrolidin‐1‐yl)‐3,4,4 a,5,6,7,8,8 a‐octahydroquinoxalin‐ 1(2H)‐yl)ethan‐1‐one]
[4]
  logD: 1.37 ± 0.06
[5]
  stability in mouse serum: high stability
[6]
  stability in human serum: high stability
[7]
  radioactivity in the bones / defluorination: increased radioactivity in the bones was not observed
[7]; 90 min observation
  enrichment of radioactivity in brain or spinal cord (PET images): do not show any enrichment of radioactivity in the brain or spinal cord
[7]; hepatic and renal pathways
  clearance from the body: very fast and efficient clearance
[8]
  intact PET tracer in blood: 90%
